# Earlier results as cited in patent publication US20260166131A1, “METHOD FOR PROMOTING PATHOLOGICAL TDP-43 PROTEIN DEGRADATION, AND DRUG” (TALENGEN INTERNATIONAL LIMITED, priority 2022, published 2026).
# Several values for one entry are separate records, joined by “and”; a condition that tells them apart may be missing. Identical values can stand only once. Like-named read-outs stand apart in the source and are kept apart here.
# Test system: ALS patients
# Details: for ALSFRS-R score before dosing: literature
# [1] = Edaravone 6 months, intravenous injection
# [2] = Riluzole 6 months, taking orally
smiles,measurement,setting,value
CC1=NN(c2ccccc2)C(=O)C1 [Edaravone],ALSFRS-R score after dosing,[1],36.89
same,ALSFRS-R scoring change,[1],−5.01±0.64 points and −5.01 points
same,ALSFRS-R score before dosing,Edaravone,41.9
Nc1nc2ccc(OC(F)(F)F)cc2s1 [Riluzole],ALSFRS-R score after dosing,[2],33.2
same,ALSFRS-R scoring change,[2],−7.0+7.1 points and −7.0 points
same,ALSFRS-R score before dosing,Riluzole,40.2
